In US9555061B2, “Synthesis and analysis of compounds capable of inducing differentiation of human mesenchymal stems cells into hepatocytes” (National University Corporation Torrori University, priority 2011, dated 2017):

Experiments:
Assay type in all cases: cell-based, human
[1] = test system: clinical specimen-derived mesenchymal stem cells; assay: Immunofluorescence staining in clinical specimen-derived mesenchymal stem cells; conditions: day 8; PN-3-13 20 μM, IC-2 40 μM
Experimental: A cover glass that had been sterilized with 100% ethanol was placed on a 12-well plate. Cells were seeded on the cover glass at a cell density of 1.8×10^4 cells/cm^2. This day was designated as day 0. At day 1 corresponding to the next day, the medium was changed to a medium containing HC-2 (at a final concentration of 20 μM), PN-3-13 (at a final concentration of 20 μM), IC-2 (at a final concentration of 40 μM), or 0.1% DMSO. At day 4, the medium was changed in a manner similar to that at day 1. At day 8, the culture medium was removed and the cells were washed twice with PBS. Then, in order to perform immunostaining of albumin, the cells were fixed for 20 min with 4% paraformaldehyde (Nacalai Tesque) containing 8% sucrose (Wako Pure Chemical Industries, Ltd.). For immunostaining of C/EBPα or CYP1A1, the cells were fixed for 20 min with 4% paraformaldehyde. After that, the cells were permeated with 0.2% Triton X-100 (Wako Pure Chemical Industries, Ltd.) for 10 min and were then blocked in 3% BSA (Nacalai Tesque) at room temperature for 30 min without shaking.
After the primary antibody reaction, the cells were washed with 0.1% BSA/PBS. […] The cells were incubated with each antibody, and were kept in a dark condition at room temperature for 1 h to carry out a secondary antibody reaction. Their nuclei were stained with DAPI (Cell Signaling Technology Inc.). […]

UE7T-13 cells = assay: RT-PCR of genes encoding liver-specific secretory proteins and cytokines (UE7T-13); conditions: hexachlorophene 0.8 μM or IC-2 15 μM; days 8, 16, 24
Experimental: Bone marrow-derived mesenchymal stem cells (UE7T-13 cells) were treated with a compound, hexachlorophene (H4625-25G; Sigma-Aldrich, Inc.) or IC-2. At that time, gene expression of each of liver-specific secretory proteins and cytokines was evaluated. […] This time point was set to day 0.
At the next day corresponding to day 1, the medium was changed to DMEM containing hexachlorophene at a final concentration of 0.8 μM or IC-2 at a final concentration of 15 μM. […] After that, the medium was replaced twice during 8 days, and the cells were subcultured every 8 days. Then, the similar operation was carried out until day 24. At days 8, 16, and 24 after the initiation of the induction, TRIzol (Invitrogen) was used to extract total RNA according to the attached instruction. After the extraction, deoxyribonuclease (Nippon Gene) was added, and the mixture was incubated at 37° C. for 30 min to remove DNA. In a reverse transcription reaction, SuperScriptII Reverse Transcriptase (Invitrogen) and Oligo(dT)15 primer were added to 1 μg of RNA to convert it into cDNA. In a RT-PCR method, the cDNA was diluted by 5 times. Next, 1 μl of the cDNA was used as a template. Then, rTaq DNA polymerase (TOYOBO) was used to amplify the cDNA. MQ water was used as a negative control. cDNA from Huh-7 or UE7T-13 cells was used as a positive control. […]

[2] = test system: clinical specimen-derived mesenchymal stem cells; assay: RT-PCR of hepatocyte differentiation marker in clinical specimen-derived mesenchymal stem cells; conditions: hexachlorophene 4 μM, HC-2 20 μM, PN-3-13 20 μM, IC-2 40 μM
Experimental: A fresh bone marrow aspirate was collected under informed consent from a patient (a person) with osteoarthritis who underwent replacement arthroplasty at the Department of Orthopedic Surgery, Tottori University Hospital. This aspirate was subjected to density gradient centrifugation using ficoll (Amersham Biosciences) to separate bone marrow mononuclear cells (FIG. 31). These bone marrow mononuclear cells were suspended in 1 ml of Hanks' balanced salt solution (HBSS, Gibco, Life Technologies Corp.) supplemented with a 100-fold diluted APC-labeled anti-CD90 antibody, a 407-fold diluted PE-labeled anti-CD271 antibody, and 2% fetal bovine serum (FBS, Defined, Thermo Fisher Scientific Inc.), and were stained on ice for 30 min. A flow cytometer (MoFlo XDP, Beckman Coulter Inc.) was used to selectively separate mesenchymal stem cells. The resulting cells were cultured in Dulbecco's Modified Eagle's Medium (Low Glucose, Gibco, Life Technologies Corp.) containing 20% FBS, 100 U/ml penicillin, […] streptomycin (Nacalai Tesque), and 20 ng/ml basic fibroblast growth factor (TRANS GENIC INC., Ltd.) on a 35-mm dish under conditions at 37° C. and 5% CO2. The medium was changed every 4 days. After colonies were formed, the cells were detached using a 0.025% trypsin/1 mM EDTA solution (Nacalai Tesque), split on a 100-mm dish, and cultured under conditions at 37° C. and 5% CO2. Then, the cells which were kept 70 to 80% confluent were detached using trypsin treatment. These cells in one dish were divided into four dishes for passage.
Cells were seeded on a 6-well plate at a cell density of 1.8×10^4 cells/cm^2. This day was designated as day 0. At day 1 corresponding to the next day, the medium was changed to a medium containing any one of hexachlorophene (at a final concentration of 4 μM), HC-2 (at a final concentration of 20 μM), PN-3-13 (at a final concentration of 20 μM), IC-2 (at a final concentration of 40 μM), and 0.1% DMSO. […]

## (6S,9aS)-6-phenyl-8-naphthalen-1-ylmethyl-4,7-dioxo-hexahydro-pyrazino[1,2-a]pyrimidine-1-carbocylic acid benzylamide [IC-2]
[1]
  levels of expression of albumin, C/EBPα, and CYP1A1 compared with negative control (0.1% DMSO): apparently increased
UE7T-13 cells
  expression of a plurality of the liver-specific secretory proteins and cytokines: increased levels of expression
[2]
  expression of albumin: induced
